melting point: 172 to 176 °C
SMILES: COc1cc(N2CCN([C@H](C)c3ccc(OC)c(OC)c3)CC2)ccc1Cl [compound 4, (R)-1-(4-Chloro-3-Methoxy-Phenyl)-4-[1-(3,4-Dimethoxy-Phenyl)-Ethyl]-Piperazine]
